Results: patent US20130197080A1, “USE OF TERIFLUNOMIDE FOR TREATING MULTIPLE SCLEROSIS” (SANOFI, priority 2010, published 2013)

System: patients with RMS
Experiment: TEMSO Phase III trial: relapses, disability progression, fatigue
Assay type: in vivo, humans
Conditions: for Hazard ratio for teriflunomide vs placebo (12-week sustained disability progression) / Hazard ratio for teriflunomide vs placebo (relapse): Cox model; for Patients with a 12-week sustained disability progression / Patients without relapse during 108 weeks: Kaplan-Meier estimate; for Fatigue Impact scale score, LS mean change from baseline: MMRM
Description: They were required to have a score of no more than 5.5 on the Kurtzke Expanded Disability Status Scale (EDSS), a minimum of two clinical relapses in the previous 2 years or one relapse during the preceding year, but no relapses in the 60 days before randomization. During the 4 weeks prior to randomization, patients were required to be clinically stable and have signed both the informed consent form and informed consent for HIV testing.
A treatment neurologist at each site was responsible for evaluating patient eligibility, supervision of study medication administration, recording and treating adverse events and assessing relapses, and monitoring safety assessments. An independent examining neurologist, blinded to treatment assignment, performed all EDSS scores and functional system assessments. EDSS scores were determined at screening, baseline, every 12 weeks following baseline visit, and at unscheduled relapse visits. MRI scans were performed at baseline and Weeks 24, 48, 72 and 108, and conducted according to the study protocol; image data were collected at clinical site MRI facilities.
For suspected relapses occurring between study visits, patients were required to attend the study site within 7 days of symptom onset for objective assessment by the examining neurologist. Relapses could be treated with intravenous corticosteroids at the investigator's discretion.
The primary study objective was to determine the effect of teriflunomide in reducing annualized relapse rate (ARR; the number of confirmed relapses per patient-year). A relapse was defined as the appearance of a new clinical sign or symptom or clinical worsening of a previous sign or symptom that had been stable for at least 30 days and persisted for a minimum of 24 hours in the absence of fever. Confirmed relapses required an increase of 1 point in at least two functional systems, or an increase of 2 points in at least one functional system (excluding bowel/bladder and cerebral function), or an increase of 0.5 points in EDSS score (1.0 for EDSS=0) from the previous clinically stable assessment.
The key secondary endpoint was to determine the effect of teriflunomide on delaying disability progression at Week 108 as assessed by changes in EDSS. Sustained disability progression was defined as a persisting increase from baseline of at least 1.0 point on the EDSS (or at least 0.5 for patients with a baseline EDSS score greater than 5.5) for at least 12 weeks. The key prespecified MRI endpoint was the effect of teriflunomide on burden of disease (total lesion volume). Other MRI endpoints included number of gadolinium (Gd)-enhancing T1 lesions, volume of T1 hypointense lesion components (‘black holes’), number of unique active lesions and brain atrophy. Patient-reported fatigue, assessed by the Fatigue Impact Scale (FIS), was an additional secondary endpoint.
A sample size of 360 randomized patients per group was required to provide 95% statistical power to detect relative risk reductions (RRR) of 25% in ARR after 2 years, assuming a placebo ARR of 0.74 and standard deviation of 0.626. All analyses followed an intention-to-treat (ITT) principle and all inferential analyses were performed at the 2-sided 5% level of significance. ARR was analyzed using a Poisson regression model with robust error variance. The model included the total number of confirmed relapses as the response variable, and treatment, baseline EDSS strata, and region as covariates, and log transformed duration of treatment as offset variable.
Disability progression was analyzed using a log-rank test with time to first disability progression as the dependent variable, treatment as test variable, and region and baseline EDSS score as strata variables. Kaplan-Meier estimates and curves of the cumulative incidence were used to assess the rate of disability progression in patients across time points. […]

[1] = 7 mg once daily oral, 108 weeks, ITT population
[2] = 7 mg once daily oral, 108 weeks, ITT population (N = 365)
[3] = 14 mg once daily oral, 108 weeks, ITT population
[4] = 14 mg once daily oral, 108 weeks, ITT population (N = 358)

C/C(O)=C(\C#N)C(=O)Nc1ccc(C(F)(F)F)cc1 [teriflunomide, (Z)-2-cyano-3-hydroxy-but-2-enoic acid-(4′-trifluoromethylphenyl)-amide]
Hazard ratio for teriflunomide vs placebo (12-week sustained disability progression) [1]: 0.763
Hazard ratio for teriflunomide vs placebo (relapse) [1]: 0.756
Adjusted Annualized Relapse Rate [1]: 0.370
Hazard ratio reduction vs placebo (disability progression) [1]: 23.7%
No. of relapses 0 - patients (%) [1]: (57.8) %
No. of relapses 1 - patients (%) [1]: (25.2) %
No. of relapses 2 - patients (%) [1]: (13.4) %
No. of relapses 3 - patients (%) [1]: (2.7) %
No. of relapses ≧4 - patients (%) [1]: (0.8) %
Relative Reduction in Annualized Relapse rate vs placebo [1]: 31.2%
No. of relapses 0 - no. of patients [2]: 211
No. of relapses 1 - no. of patients [2]: 92
No. of relapses 2 - no. of patients [2]: 49
No. of relapses 3 - no. of patients [2]: 10
No. of relapses ≧4 - no. of patients [2]: 3
Patients with a 12-week sustained disability progression [1]: 21.7%
Fatigue Impact scale score, LS mean change from baseline [1]: 2.3
Patients without relapse during 108 weeks (7 mg once daily oral, ITT population): 53.7%
patients who discontinued treatment due to disease progression, compared with placebo (14 mg group, p=0.02): lower number
Hazard ratio for teriflunomide vs placebo (12-week sustained disability progression) [3]: 0.702
Hazard ratio for teriflunomide vs placebo (relapse) [3]: 0.719
Adjusted Annualized Relapse Rate [3]: 0.369
No. of relapses 0 - patients (%) [3]: (60.6) %
No. of relapses 1 - patients (%) [3]: (24.0) %
No. of relapses 2 - patients (%) [3]: (9.2) %
No. of relapses 3 - patients (%) [3]: (4.5) %
No. of relapses ≧4 - patients (%) [3]: (1.7) %
No. of relapses 0 - no. of patients [4]: 217
No. of relapses 1 - no. of patients [4]: 86
No. of relapses 2 - no. of patients [4]: 33
No. of relapses 3 - no. of patients [4]: 16
No. of relapses ≧4 - no. of patients [4]: 6
Patients with a 12-week sustained disability progression [3]: 20.2%
Fatigue Impact scale score, LS mean change from baseline [3]: 3.8
Patients without relapse during 108 weeks (14 mg once daily oral, ITT population): 56.5%
Patient-reported fatigue (FIS scores) (all treatment groups, during the study): remained stable
